The results in this text go back to US4618669A, “S-(carbamoyl-phenylselenyl) derivatives of glutathione and of aminomercaptocarboxylic acids” (A. Nattermann & Cie GmbH, priority 1984, dated 1986).

Structures are written as SMILES.

One assay is described as follows: Glutathione-peroxidase-like activity, reaction rates by the method of A. Wendel. The format is biochemical. To be noted: relative to S-(2-phenylcarbamoyl-phenylselenyl) glutathione, taken as 100%; tert-butylhydroperoxide; in vitro. As for the experimental part: The measuring of the glutathione peroxidase-like activity is carried out by the method of A. Wendel (A. Wendel, Methods in Enzymology, vol. 77, 325-333 (1981)). In this experiment, the reaction of the co-substrate nicotine […]-dinucleotide-phosphate is measured. The reducing agent in this case is not glutathione, but the […] containing aminoacid which has been used for the synthesis of the respective compounds. […] In in vitro-experiments, the catalysis of the peroxidase destruction has been examined. It was found, that the compounds of the present invention can replace the glutathioneperoxidase. [drawing 5] The reaction rates were measured by the method of A. Wendel (A. Wendel, Methods in Enzymology, vol. 77, pages 325-333 (1981)).
With `COc1ccc(NC(=O)c2ccccc2[Se]SCC(NC(=O)CCC(N)C(=O)O)C(=O)NCC(=O)O)cc1` [S-[2-(4-Methoxyphenylcarbamoyl)-phenylselenyl]-L-glutathione], the “catalytic activity (%)” value came to 124%.

On to `COc1cccc(C(=O)Nc2ccccc2)c1[Se]SCC(NC(=O)CCC(N)C(=O)O)C(=O)NCC(=O)O` [S-(2-phenylcarbamoyl-6-methoxy-phenylselenyl)-L-glutathione], for which the “catalytic activity (%)” value is given as 225%.

Turning to `N[C@@H](CS[Se]c1ccccc1C(=O)NCc1ccccc1)C(=O)O` [S-(2-Benzylcarbamoyl-phenylselenyl)-L-cysteine], the “catalytic activity (%)” value is on record as 56%. Regarding `NC(CCC(=O)NC(CS[Se]c1ccccc1C(=O)Nc1ccccc1Cl)C(=O)NCC(=O)O)C(=O)O` [S-[2-(2-chlorphenylcarbamoyl)-phenylselenyl]-L-glutathione], the “catalytic activity (%)” value amounted to 39%.

In the case of `NC(CCC(=O)NC(CS[Se]c1ccccc1C(=O)Nc1ccc([N+](=O)[O-])cc1)C(=O)NCC(=O)O)C(=O)O` [S-[2-(4-nitrophenylcarbamoyl)-phenylselenyl]-L-glutathione], the “catalytic activity (%)” value was determined as 121%.

Consider `N[C@@H](CS[Se]c1ccccc1C(=O)Nc1ccccc1)C(=O)O` [S-(2-Phenylcarbamoyl-phenylselenyl)-L-cysteine], for which the “catalytic activity (%)” value came to 210%. Regarding `NC(CCC(=O)NC(CS[Se]c1ccccc1C(=O)Nc1cccc(F)c1)C(=O)NCC(=O)O)C(=O)O` [S-[2-(3-fluorophenylcarbamoyl)-phenylselenyl]-L-glutathione], the “catalytic activity (%)” value is 113%.

Turning to `NC(CCC(=O)NC(CS[Se]c1cc(Cl)ccc1C(=O)Nc1ccccc1)C(=O)NCC(=O)O)C(=O)O` [S-(2-phenylcarbamoyl-5-chlor-phenylselenyl)-L-glutathione], the “catalytic activity (%)” value is reported as 99%. Regarding `N[C@@H](CCC(=O)N[C@@H](CS[Se]c1ccccc1C(=O)Nc1ccccc1)C(=O)NCC(=O)O)C(=O)O` [S-(2-Phenylcarbamoyl-phenylselenyl)-L-glutathione], the “catalytic activity (%)” value worked out at 100%. The same measure, in the same setting: the figure for `CC(=O)N[C@@H](CS[Se]c1ccccc1C(=O)Nc1ccccc1)C(=O)O` [S-(2-Phenylcarbamoyl-phenylselenyl)-N-acetyl-L-cysteine] is 40%; for `COc1ccccc1NC(=O)c1ccccc1[Se]SCC(NC(=O)CCC(N)C(=O)O)C(=O)NCC(=O)O` [S--[2-(2-methoxyphenylcarbamoyl)-phenylselenyl]-L--glutathione] it is 37%; for `NC(CCC(=O)NC(CS[Se]c1cc(F)ccc1C(=O)Nc1ccccc1)C(=O)NCC(=O)O)C(=O)O` [S-(2-Phenylcarbamoyl-5-fluoro-phenylselenyl)-L-glutathione] it is 92%. With `COc1ccc(C(=O)Nc2ccccc2)c([Se]SCC(NC(=O)CCC(N)C(=O)O)C(=O)NCC(=O)O)c1` [S-(2-phenylcarbamoyl-5-methoxy-phenylselenyl)-L-glutathione], the “catalytic activity (%)” value was 63%. On the same count and under the same terms, the figure for `N[C@@H](CCC(=O)N[C@@H](CS[Se]c1ccccc1C(=O)Nc1ccc(Cl)c(Cl)c1)C(=O)NCC(=O)O)C(=O)O` [S-[2-(3,4-Dichlorophenylcarbamoyl)-phenylselenyl]-L-glutathione] is 21%; for `COc1cccc(C(=O)Nc2ccccc2)c1[Se]SC[C@H](N)C(=O)O` [S-(2-phenylcarbamoyl-6-methoxy-phenylselenyl)-L-cysteine] it is 440%.

Regarding `CC(=O)N[C@@H](CS[Se]c1ccccc1C(=O)Nc1ccc(F)cc1)C(=O)O` [S-[2-(4-fluorophenylcarbamoyl)-phenylselenyl]-N-acetyl-L-cysteine], the “catalytic activity (%)” value amounted to 61%. Consider `NC(CCC(=O)NC(CS[Se]c1ccccc1C(=O)Nc1ccc(Cl)cc1)C(=O)NCC(=O)O)C(=O)O` [S-[2-(4-Chlorophenylcarbamoyl)-phenylselenyl]-L-glutathione], for which the “catalytic activity (%)” value is 116%.

With `CC(C)(S[Se]c1ccccc1C(=O)Nc1ccccc1)[C@@H](N)C(=O)O` [S-(2-phenylcarbamoyl-phenylselenyl)-D-penicillamine], the “catalytic activity (%)” value is reported as 25%. Turning to `NC(CCC(=O)NC(CS[Se]c1ccccc1C(=O)Nc1ccc(C(F)(F)F)cc1)C(=O)NCC(=O)O)C(=O)O` [S-[2-(4-trifluormethylphenylcarbamoyl)-phenylselenyl]-L-glutathione], the “catalytic activity (%)” value is given as 49%.

Assay in another assay: as above
To be noted: 1 millimolar concentration of glutathione with tert-butylhydroperoxide. The class given is biochemical.
Turning to `N[C@@H](CCC(=O)N[C@@H](CS[Se]c1ccccc1C(=O)Nc1ccccc1)C(=O)NCC(=O)O)C(=O)O` [S-(2-Phenylcarbamoyl-phenylselenyl)-L-glutathione], the reaction rate was 1,17×10^6 units per mol.
